Laboratory results as given in PubChem BioAssay AID2305 (GlaxoSmithKline (GSK), 2010).

System: P. falciparum 3D7 growth, pLDH absorbance
Assay: blood-stage malaria parasite growth potency – strain 3D7, dose response (AID 2305)

Point of comparison: `COc1c(C2CCN(CCCCNC(=O)c3ccc(-c4ccc(NC(=O)C(F)(F)F)cc4)cc3)CC2)ccc2c1CCCC2`, IC50 1000 nM. Against it:
- CCCCOP(=O)(COc1ccc(CCN(CC(O)COc2cccc3[nH]c4ccccc4c23)CC(O)COc2cccc3[nH]c4ccccc4c23)cc1)C1CCCCC1 (stereo not given) — within 1.5-fold, 940 nM
- COc1ccc(NC(=O)c2ccc(-c3nc(-c4cccc(C(F)(F)F)c4)cs3)cc2)cc1N1CCN(C)CC1 — within 1.5-fold, 820 nM
- NC(=O)c1ccccc1Nc1nc(Nc2ccc(N3CCOCC3)cc2)ncc1[N+](=O)[O-] — within 1.5-fold, 880 nM
- Cc1nc(Nc2ccc(C)c(Cl)c2)c2c(C)noc2n1 — within 1.5-fold, 890 nM
- COc1ccc(Nc2ncc3c(-c4cccc(NC(=O)Cc5cccc(F)c5)c4)c[nH]c3n2)cc1OC — 1.8-fold lower, 570 nM
- Cc1[nH]c(C)c(-c2ccc(CCc3ccc(F)cc3F)cc2)c(=O)c1Br — 100-fold lower, 10 nM
- CCOC(=O)C(C#N)NC(=O)C=Cc1ccccc1 (stereo not given) — within 1.5-fold, 800 nM
- CS(=O)(=O)c1ccc2c(c1)CCN(CCC1CCC(NC(=O)c3cc4cccc(Br)c4[nH]3)CC1)CC2 (stereo not given) — within 1.5-fold, 1040 nM
- COc1ccc(-c2ccc(NC(=O)c3ccc(Cl)cc3)cc2)cc1CN(C)CCO — within 1.5-fold, 810 nM
- CCN(C(=O)CSc1cc(C)c2cc(C)cc(C)c2n1)C1CCS(=O)(=O)C1 (stereo not given) — within 1.5-fold, 670 nM
- COc1ccc(NS(=O)(=O)c2cc(NC(=O)Cn3ccccc3=O)ccc2N2CCCCC2)cc1 — within 1.5-fold, 700 nM
- c1ccc2c(Nc3ccc(OCCOCCOc4ccc(Nc5c6ccccc6nc6ccccc56)cc4)cc3)c3ccccc3nc2c1 — 3.6-fold lower, 280 nM
- O=C(Nc1ccc(Cl)cc1)Nc1cccc(CCNCc2ccccc2)c1 — within 1.5-fold, 730 nM
- O=C1OC2(CCN(C(=O)c3ccc(-n4cnnn4)cc3)CC2)CN1Cc1ccc(Cl)c(Cl)c1 — within 1.5-fold, 720 nM
- Cc1nc(N)nc(N)c1OCCCCCCOc1ccccc1 — 4.2-fold lower, 240 nM
- O=C(CNC(=O)c1ccc(O)cc1)Nc1cccc(-c2cccc(-c3nc4ccc(C(F)(F)F)cc4[nH]3)c2)c1 — within 1.5-fold, 1040 nM
- Cc1nnc(Sc2ncnc3scc(-c4ccc(F)cc4)c23)s1 — within 1.5-fold, 810 nM
- Cc1ccc(F)c(OC2CCN(c3ccc(C(=O)NC4CC4)cn3)CC2)c1 — within 1.5-fold, 820 nM
- CCOc1ccc(-n2nc3c(Cl)nnc(-c4ccccc4)c3c2-c2ccccc2)cc1 — 4.3-fold lower, 230 nM
- COc1ccc(C=CC(=O)N2CCC(CN3CCC(c4c[nH]c5ccccc45)CC3)CC2)cc1OC — within 1.5-fold, 1070 nM
- Cc1c(NCCCNCc2cc(Cl)cc(Cl)c2Cl)[nH]c2ccccc2c1=O — 3.2-fold lower, 310 nM
- COc1ccc(Cc2cnc(N)nc2N)cc1OCCCOc1ccccc1 — within 1.5-fold, 910 nM
- CCOc1ccccc1NC(=O)C(Sc1nc(C)cc(C)c1C#N)c1ccccc1 (stereo not given) — 2.7-fold lower, 370 nM
- CN1CCN(c2ccnc3ccc(NC(=O)Nc4ccc(-c5ccncc5)c(C#N)c4)cc23)CC1 — 6.2-fold lower, 160 nM
- COc1cc2nc(N3CCC(CNC(=O)c4ccc(-c5ccc(Cl)cc5)cc4)CC3)nc(N)c2cc1OC — 6.7-fold lower, 150 nM
- COc1ccc2ncc(F)c(CCN3CC[C@@H](CNCc4cc(C)c5c(c4)OCCO5)C3)c2n1 — within 1.5-fold, 890 nM
- COc1ccccc1C1CN(Cc2coc3ccccc3c2=O)Cc2ccccc2O1 (stereo not given) — within 1.5-fold, 1320 nM
- CC(C)NCc1cccc(-c2ccc(NC(=O)c3ccc(F)cc3)cc2)c1 — within 1.5-fold, 850 nM
- COC(=O)c1ccc(CCC(C)NCC(O)c2cccc(Cl)c2)cc1 (stereo not given) — within 1.5-fold, 670 nM
- O=C(NC1CCC(CN2CCC(c3c[nH]c4ccccc34)CC2)CC1)c1cc2ccccc2s1 (stereo not given) — within 1.5-fold, 730 nM
- CC(Cc1ccc(OC2CCCCC2)cc1)NCC(O)c1cccc(Cl)c1 (stereo not given) — 7.1-fold lower, 140 nM
- COc1ccc(-c2nc(NC(=O)CS(=O)(=O)c3ccccc3)sc2C)cc1 — 1.7-fold lower, 600 nM
- O=C(NC1CCC(CN2CCC(c3c[nH]c4ccccc34)CC2)CC1)c1cnn(-c2ccccc2)c1-c1ccccc1Cl (stereo not given) — 5.6-fold lower, 180 nM
- CC(Cc1ccc(OCCCCOc2ccccc2)cc1)NCCCN1CCOCC1 (stereo not given) — within 1.5-fold, 720 nM
- CCCN1CCC(NCc2cn(C)nc2-c2ccc(Oc3ccccc3)cc2)CC1 — within 1.5-fold, 1440 nM
- Cc1cccc2[nH]c(-c3cccc(-c4ccc(CNCc5ccc(S(C)(=O)=O)cc5)cc4)c3)nc12 — 5.6-fold lower, 180 nM
- CC(C)CC(=O)N1CCNC[C@@H]1C(=O)NCc1ccc(Cl)c(Cl)c1 — within 1.5-fold, 950 nM
- CC(C)N1CCN(C(CN2CCN(CCCOc3ccc4ccccc4c3)CC2)c2ccc(F)cc2)CC1 (stereo not given) — 1.7-fold lower, 580 nM
- CO/C(=C\C=C\c1cc2cc(Cl)c(Cl)cc2[nH]1)C(=O)NCCCN1CCN(Cc2ccccc2)CC1 — within 1.5-fold, 910 nM
- Cc1[nH]c(C)c(-c2ccc(Oc3ccc(Cl)c(Cl)c3)cc2)c(=O)c1Br — 3.3-fold lower, 300 nM
- N#Cc1cccc(C(=O)Nc2ccc(-c3cccc(CN4CCCC4)c3)cc2)c1 — within 1.5-fold, 710 nM
- CCCCc1ccc(C(=O)Nc2ccc3nc(N4CCN(CC)CC4)cc(C)c3c2)cc1 — within 1.5-fold, 910 nM
- Cc1cccc2[nH]c(-c3cccc(-c4ccc(NC(=O)CCc5cnc[nH]5)cc4)c3)nc12 — 3.3-fold lower, 300 nM
- CCC[C@@H]([C@@H](CC1CCCCC1)C(=O)N[C@H](C(=O)Nc1nccs1)C(C)(C)SCCNC(=O)OCC)N(O)C=O — 12-fold lower, 80 nM
- COc1cc(NCCCNC(=O)c2cc3c(Cl)cc(Cl)cc3[nH]2)nc2ccccc12 — 7.1-fold lower, 140 nM
- Cc1cc(O)c(C(C)C)cc1C1(c2cc(C(C)C)c(O)cc2C)OC(=O)c2ccccc21 — within 1.5-fold, 870 nM
- CC(C)Sc1nc2c(c(=O)n1Cc1ccco1)C1(CCCCC1)Cc1ccccc1-2 — 4-fold lower, 250 nM
- COc1ccc2c(c1)OC(C)(C)CC2=NOS(=O)(=O)c1ccc(C)cc1 — 4.8-fold lower, 210 nM
- COc1ccc(CNC2CCN(C)CC2)cc1-c1ccc(S(=O)(=O)NC2CCC2)c(C)c1 — within 1.5-fold, 990 nM
- Cc1ccc(C(CC(=O)Nc2nccs2)c2ccc(OC(C)C)cc2)cc1 (stereo not given) — 2.1-fold lower, 480 nM
- Cc1cc(-c2ccc3c(c2)CCN(CCC2CCC(NC(=O)/C=C/c4ccc(F)cc4)CC2)CC3)on1 (stereo not given) — within 1.5-fold, 720 nM
- CC1(C)N=C(N)N=C(N)N1c1ccc([N+](=O)[O-])cc1 — 4.3-fold lower, 230 nM
- COc1cc(NC(=O)Nc2cc(C)nc3ccccc23)cc(OC)c1 — 2.5-fold lower, 400 nM
- CNC(=O)c1cnc(Nc2ccc(N3CCN(C)CC3)c(C)c2)nc1NC — within 1.5-fold, 870 nM
- CN(c1ccc(F)cc1)S(=O)(=O)c1ccc(Cl)c(C(=O)Nc2cccc(C#N)c2)c1 — within 1.5-fold, 700 nM
- CC(C)(C)c1ccc(Cc2cccc3nc(N)nc(N)c23)cc1 — within 1.5-fold, 830 nM
- COc1cccc(-c2cc3nc4c(c(NCCCn5ccnc5)n3n2)CCCC4)c1 — within 1.5-fold, 680 nM
- COc1ccc(NC(=O)c2ccc(-c3ccc(-c4cccnc4)cc3)c(C)c2)cc1OCCN(C)C — 5-fold lower, 200 nM
- N#Cc1ccc2c(c1)CCN(CCC1CCC(NC(=O)Nc3cnc4ccccc4c3)CC1)C2 (stereo not given) — within 1.5-fold, 770 nM
- CN(C)CCN(C)Cc1cccc(-c2ccc3c(Nc4cc(O)c(Cl)cc4F)ccnc3c2)c1 — 4.2-fold lower, 240 nM
- O=C(Nc1nc2cc(S(=O)(=O)NCc3ccc(Cl)c(Cl)c3)ccc2n1CCCn1ccnc1)c1ccc(Cl)cc1 — within 1.5-fold, 730 nM
- O=S(=O)(/C=C/c1ccccc1)N(Cc1ccc(-c2ccc(CNCCc3ccccn3)cc2)cc1)CC1CCCCN1 (stereo not given) — within 1.5-fold, 740 nM
- Cc1cc2nc(-c3ccc(C(=O)NC4CCN(Cc5ccccc5)CC4)cc3)[nH]c2cc1C — within 1.5-fold, 740 nM
- CC(=Nc1ccc(Cl)c(Cl)c1)N(C)C — 1.9-fold lower, 540 nM
- O=C(Nc1ccc2nc(-c3ccccc3)[nH]c2c1)c1cc(-c2ccc3c(c2)OCCO3)n[nH]1 — within 1.5-fold, 770 nM
- COc1ccc(CNCCc2cccs2)cc1-c1ccc(S(=O)(=O)NCCN2CCCC2)cc1 — 1.5-fold lower, 650 nM
- O=C(Nc1ccc(C(F)(F)F)cc1)c1ccc(S(=O)(=O)NC2CCN(Cc3ccccc3)C2)cc1 (stereo not given) — 1.6-fold lower, 620 nM
- COc1nc2c(CCN3CCC(NCc4ccc5c(c4)NC(=O)CO5)CC3)c(Cl)cnc2cc1F — within 1.5-fold, 770 nM
- O=C(/C=C/c1ccc(C(F)(F)F)cc1)NCCCCCN1CCN(C(=O)Nc2ccc(F)c(Cl)c2)CC1 — within 1.5-fold, 1210 nM
